Reference: patent publication US9026372B2, “Methods for providing a system of care for a high-dose oxazaphosphorine drug regimen” (Accentia Biopharmaceuticals, Inc., priority 2007, dated 2015)
Read-outs that look alike come from different tables or passages of the source.

Experiments:
[1] = test system: aggressive relapsing-remitting multiple sclerosis
Description: All 9 patients had aggressive relapsing-remitting multiple sclerosis, 8 of whom failed conventional therapy and 1 was untreated. Median age at time of entry was 29 years (range of 20 to 47 years). The mean number of gadolinium enhancing lesions on baseline MRI was 6.5 (range 3-11).

[2] = test system: white blood cell (WBC) count
Description: On Day 6, (six days after completion of high-dose cyclophosphamide treatment), patients received G-CSF.

O=P1(N(CCCl)CCCl)NCCCO1 (centres unmarked) [cyclophosphamide]
reduction in disability (EDSS) ([1]; 9 patients, at baseline 66% had EDSS of 5.0 or more): 50%
reduction in gadolinium enhancements ([1]; at 6 months following 50 mg/kg/day intravenously for four days, 9 patients, baseline mean 6.5 lesions): 90%
reduction in gadolinium enhancements ([1]; by 18 months following 50 mg/kg/day intravenously for four days, 9 patients): 94%
adverse outcomes ([1]; initial cohort of 9 patients with severe relapsing MS): no significant adverse outcomes
patients having no disability (EDSS score of 0) ([1]; of 9 patients, after treatment): 3 patients
patients with EDSS score of 1 ([1]; of 9 patients, after treatment): 1 patient
patients with an exacerbation during follow-up ([1]; of 9 patients, started on conventional MS therapy at 18 months): one
minimum WBC ([2]; patient HiCy01, never had GEL, suspected exacerbations): 70
minimum WBC ([2]; patient HiCy07, went to 0 GEL, single GEL on follow-up MRI): 6
minimum WBC count ([2]; patient HiCy11, GEL on every follow up): 24
minimum WBC ([2]; patient HiCy14, went to 0 GEL, single GEL on follow-up MRI): 31
minimum WBC count ([2]; patient HiCy19, GEL on every follow up, only 6 months of follow-up): 50
WBC count (minimum) ([2]; patients HiCy05 and HiCy13, within two weeks of treatment, no GEL up to 24 months follow-up): 0
minimum WBC count ([2]; patients HiCy09 and HiCy15 (both), 0 GEL): 12
